Tests used:
Experiment in all cases: relative viability (nuclei count vs DMSO), 5 days (fraction); higher = more cells survive
NCI-H1793 = tested on: NCI-H1793
How it was run: (§1)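 One day after seeding in 1536-well plates, lung cancer cell lines were dosed by pin tool. Dosing was either single-drug or a fixed anchor-drug dose plus five library-drug doses (not always all listed) in √10 steps. After 5 days, nuclei were stained in one fix-and-stain step and counted on 4× images, and relative viability is the nuclei count of treated wells over that of vehicle wells, given as the median of duplicate plates.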

LXF-289 = tested on: LXF-289
How it was run: as §1

NCI-H2228 = tested on: NCI-H2228
How it was run: as §1

HCC-827 = tested on: HCC-827
How it was run: as §1

NCI-H2405 = tested on: NCI-H2405
How it was run: as §1

NCI-H3122 = tested on: NCI-H3122
How it was run: as §1

NCI-H1944 = tested on: NCI-H1944
How it was run: as §1

BEN = tested on: BEN
How it was run: as §1

RERF-LC-KJ = tested on: RERF-LC-KJ
How it was run: as §1

CAL-12T = tested on: CAL-12T
How it was run: as §1

NCI-H322M = tested on: NCI-H322M
How it was run: as §1

NCI-H1650 = tested on: NCI-H1650
How it was run: as §1

HOP-62 = tested on: HOP-62
How it was run: as §1

NCI-H647 = tested on: NCI-H647
How it was run: as §1

NCI-H1395 = tested on: NCI-H1395
How it was run: as §1

LCLC-97TM1 = tested on: LCLC-97TM1
How it was run: as §1

NCI-H1437 = tested on: NCI-H1437
How it was run: as §1

HCC-44 = tested on: HCC-44
How it was run: as §1

NCI-H2087 = tested on: NCI-H2087
How it was run: as §1

SK-LU-1 = tested on: SK-LU-1
How it was run: as §1

NCI-H727 = tested on: NCI-H727
How it was run: as §1

201T = tested on: 201T
How it was run: as §1

`O=C(O)c1ccc(-c2c[nH]c3ncc(-c4ccccc4)cc23)cc1C1CCCC1` + CC1(C)CCC(c2ccc(Cl)cc2)=C(CN2CCN(c3ccc(C(=O)NS(=O)(=O)c4ccc(N[C@H](CCN5CCOCC5)CSc5ccccc5)c(S(=O)(=O)C(F)(F)F)c4)cc3)CC2)C1 [Navitoclax] (partner 0.5 µM) gave a relative viability (NCI-H1793; first compound 0.04 µM) of 0.538, a relative viability (NCI-H1793; first compound 0.1265 µM) of 0.383 and a relative viability (NCI-H1793; first compound 0.4 µM) of 0.494. The relative viability (NCI-H1793; first compound 1.265 µM) was 0.286, the relative viability (LXF-289; first compound 0.04 µM) was 0.936 and the relative viability (LXF-289; first compound 0.1265 µM) was 0.883. For the same compound, the relative viability (LXF-289; first compound 0.4 µM) was 0.658, the relative viability (LXF-289; first compound 1.265 µM) was 0.48 and the relative viability (NCI-H2228; first compound 0.04 µM) was 0.927. The relative viability (NCI-H2228; first compound 0.1265 µM) was 0.778, the relative viability (NCI-H2228; first compound 0.4 µM) was 0.98 and the relative viability (NCI-H2228; first compound 1.265 µM) was 0.793. It also gave a relative viability (HCC-827; first compound 0.04 µM) of 0.95, a relative viability (HCC-827; first compound 0.1265 µM) of 1.04 and a relative viability (HCC-827; first compound 0.4 µM) of 0.979. The relative viability (HCC-827; first compound 1.265 µM) was 0.798, the relative viability (NCI-H2405; first compound 0.04 µM) was 0.944 and the relative viability (NCI-H2405; first compound 0.1265 µM) was 0.811. The relative viability (NCI-H2405; first compound 0.4 µM) was 0.864, the relative viability (NCI-H2405; first compound 1.265 µM) was 0.348 and the relative viability (NCI-H3122; first compound 0.04 µM) was 1.02. For the same compound, the relative viability (NCI-H3122; first compound 0.1265 µM) was 1, the relative viability (NCI-H3122; first compound 0.4 µM) was 1.03 and the relative viability (NCI-H3122; first compound 1.265 µM) was 0.976. For the same compound, the relative viability (NCI-H1944; first compound 0.04 µM) was 1.01, the relative viability (NCI-H1944; first compound 0.1265 µM) was 1.03 and the relative viability (NCI-H1944; first compound 0.4 µM) was 1.07. The relative viability (NCI-H1944; first compound 1.265 µM) was 0.932, the relative viability (BEN; first compound 0.04 µM) was 0.06 and the relative viability (BEN; first compound 0.1265 µM) was 0.057. The relative viability (BEN; first compound 0.4 µM) was 0.0946, the relative viability (BEN; first compound 1.265 µM) was 0.0505 and the relative viability (RERF-LC-KJ; first compound 0.04 µM) was 1.05. It also gave a relative viability (RERF-LC-KJ; first compound 0.1265 µM) of 1.24, a relative viability (RERF-LC-KJ; first compound 0.4 µM) of 0.842 and a relative viability (RERF-LC-KJ; first compound 1.265 µM) of 0.772. It also gave a relative viability (CAL-12T; first compound 0.04 µM) of 1.26, a relative viability (CAL-12T; first compound 0.1265 µM) of 1.21 and a relative viability (CAL-12T; first compound 0.4 µM) of 1.11. For the same compound, the relative viability (CAL-12T; first compound 1.265 µM) was 1.05, the relative viability (NCI-H322M; first compound 0.04 µM) was 1.19 and the relative viability (NCI-H322M; first compound 0.1265 µM) was 1.37. It also gave a relative viability (NCI-H322M; first compound 0.4 µM) of 1.34, a relative viability (NCI-H322M; first compound 1.265 µM) of 1.03 and a relative viability (NCI-H1650; first compound 0.04 µM) of 1.17. The relative viability (NCI-H1650; first compound 0.1265 µM) was 1.14, the relative viability (NCI-H1650; first compound 0.4 µM) was 0.774 and the relative viability (NCI-H1650; first compound 1.265 µM) was 0.914. The relative viability (HOP-62; first compound 0.04 µM) was 1.05, the relative viability (HOP-62; first compound 0.1265 µM) was 1.13 and the relative viability (HOP-62; first compound 0.4 µM) was 1.05. For the same compound, the relative viability (HOP-62; first compound 1.265 µM) was 0.76, the relative viability (NCI-H647; first compound 0.04 µM) was 1.1 and the relative viability (NCI-H647; first compound 0.1265 µM) was 1.13. It also gave a relative viability (NCI-H647; first compound 0.4 µM) of 1.04, a relative viability (NCI-H647; first compound 1.265 µM) of 0.713 and a relative viability (NCI-H1395; first compound 0.04 µM) of 1.13. The relative viability (NCI-H1395; first compound 0.1265 µM) was 1.05, the relative viability (NCI-H1395; first compound 0.4 µM) was 1.03 and the relative viability (NCI-H1395; first compound 1.265 µM) was 0.915. It also gave a relative viability (LCLC-97TM1; first compound 0.04 µM) of 0.463, a relative viability (LCLC-97TM1; first compound 0.1265 µM) of 0.303 and a relative viability (LCLC-97TM1; first compound 0.4 µM) of 0.503. It also gave a relative viability (LCLC-97TM1; first compound 1.265 µM) of 0.396, a relative viability (NCI-H1437; first compound 0.04 µM) of 1.03 and a relative viability (NCI-H1437; first compound 0.1265 µM) of 1.22. The relative viability (NCI-H1437; first compound 0.4 µM) was 0.955, the relative viability (NCI-H1437; first compound 1.265 µM) was 0.407 and the relative viability (HCC-44; first compound 0.04 µM) was 1.06. The relative viability (HCC-44; first compound 0.1265 µM) was 1.01, the relative viability (HCC-44; first compound 0.4 µM) was 0.944 and the relative viability (HCC-44; first compound 1.265 µM) was 0.914. It also gave a relative viability (NCI-H2087; first compound 0.04 µM) of 0.856, a relative viability (NCI-H2087; first compound 0.1265 µM) of 1.03 and a relative viability (NCI-H2087; first compound 0.4 µM) of 1.05. The relative viability (NCI-H2087; first compound 1.265 µM) was 0.857, the relative viability (SK-LU-1; first compound 0.04 µM) was 0.982 and the relative viability (SK-LU-1; first compound 0.1265 µM) was 1.01. The relative viability (SK-LU-1; first compound 0.4 µM) was 0.697, the relative viability (SK-LU-1; first compound 1.265 µM) was 0.482 and the relative viability (NCI-H727; first compound 0.04 µM) was 0.414. For the same compound, the relative viability (NCI-H727; first compound 0.1265 µM) was 0.422, the relative viability (NCI-H727; first compound 0.4 µM) was 0.476 and the relative viability (NCI-H727; first compound 1.265 µM) was 0.515. It also gave a relative viability (201T; first compound 0.04 µM) of 1.23, a relative viability (201T; first compound 0.1265 µM) of 1.26 and a relative viability (201T; first compound 0.4 µM) of 1.22. The relative viability (201T; first compound 1.265 µM) was 1.13.
